Experimental data published in patent US10532066B2, “Surfactant lipids, compositions thereof, and uses thereof” (National Jewish Health, priority 2007, dated 2020).

Test system: differentiated U937 cells
Assay: LPS-induced TNF-α secretion by differentiated U937 cells
Type: cell-based, human
Details: LPS 10 ng/ml, 6 h, liposomes; LPS without phospholipid = 100%
Description: FIG. 1. Anionic phospholipids inhibit inflammatory mediator production induced by LPS. Liposomes composed of sphingomyelin (SM), phosphatidylethanolamine (PE) dipalmitoyl-phosphatidylcholine ((DPPC), phosphatidylserine (PS), palmitoyl-oleoyl-phosphatidylglycerol (POPG) and phosphatidylinositol (PI) were formed by bath-sonication for 30 min at room temperature. LPS (10 ng/ml) and different concentrations of phospholipids were added to monolayer cultures of differentiated U937 cells (A), or primary rat alveolar macrophages (B). At 6 h after stimulation, media were collected and secreted TNF-α levels were determined in U937 cultures. NO production was determined 24 h after stimulating rat alveolar macrophages. LPS stimulation in the absence of phospholipid was set as 100%. […] The average TNF-α production upon LPS stimulation was (8.0±0.54 ng/ml). The average NO production upon LPS stimulation was 12.17±0.27 μM.
FIG. 2. The inhibitory effect of phosphatidylglycerols on LPS-induced inflammatory mediator production is molecular species specific. PG liposomes were formed by bath-sonication for 30 min at room temperature. LPS (10 ng/ml) and different concentrations of PG were added to monolayer cultures of differentiated U937 cells (A) or rat alveolar macrophages (B). Media TNF-α measurements were performed 6 h after stimulation. Media NO measurements were performed 24 h after stimulation. LPS stimulation without PG was set at 100%. The molecular species of PG shown on the graph are 8:0; dioctanoyl-phosphatidylglycerol, 12:0; dilauroyl-phosphatidylglycerol (DLPG), 14:0; dimyristoyl-phosphatidylglycerol (DMPG), 16:0; dipalmitoyl-phosphatidylglycerol (DPPG), 18:0; distearoyl-phosphatidylglycerol, 16:0/18:1; palmitoyl-oleoyl-phosphatidylglycerol (POPG). […] The average TNF-α production upon LPS stimulation was 11.3±0.7 ng/ml. The average NO production upon LPS stimulation was 10.1±0.6 μM.
FIG. 3. […] Surfactant lipid (SL) and POPG were dried under nitrogen, and hydrated at 37° C. for 1 h. (A) SL and POPG were mixed in organic solvents prior to drying and hydrating and subsequently liposomes were produced. (B) SL and POPG were made as independent populations of liposomes that were subsequently mixed prior to macrophage treatment. 10 ng/ml of LPS and different concentrations of liposome mixtures were added to monolayer cultures of differentiated U937 cells. 6 h after stimulation, media were collected and TNF-α production was determined. LPS stimulation without phospholipid was set as 100%. […] The average TNF-α production upon LPS stimulation was 7.0±0.2 ng/ml.
U937 cells were induced to differentiate by treatment with 10 nM phorbol myristate acetate (PMA) for 48 h. The cells (1.3×10^5/well) were placed in 96-well plates and further incubated in the absence of PMA for 24 h in RPMI 1640 medium containing 10% BGS. Rat alveolar macrophages (5×10^5/well) were incubated in 24-well plates for 2 h after isolation. The indicated concentration of phospholipids was added to the cultures 30 min before adding LPS. After LPS addition cultures were incubated for 6 h at 37° C. at an atmosphere of 95% air and 5% CO2. At the end of the incubation period the medium was collected and assayed for TNF-α concentrations using an ELISA kit.
Surfactant lipids were isolated from the bronchioalveolar lavage of Sprague-Dawley rats, 28 days after intratracheal instillation of 25 mg of silica (˜125 mg/kg). Initially, the surfactant was purified by the method of Hawgood et. al. (25) using NaBr density gradient centrifugation. The purified surfactant was extracted with butanol (26) and segregated into butanol-soluble and -insoluble material.

CCCCCCCCCCCCCC(=O)OCC(COP(=O)(O)OCC(O)CO)OC(=O)CCCCCCCCCCCCC (centres unmarked) [DMPG, dimyristoyl-phosphatidylglycerol]
LPS-induced TNF-α production: as potent as POPG

CCCCCCCCCCCCCCCC(=O)OC[C@H](COP(=O)([O-])OCC[N+](C)(C)C)OC(=O)CCCCCCCCCCCCCCC [DPPC, dipalmitoyl-phosphatidylcholine, reference compound]
LPS-induced TNF-α production: no significant effect

CCCCCCCCCCCCCCCC(=O)OCC(COP(=O)(O)OCC(O)CO)OC(=O)CCCCCCCCCCCCCCC (centres unmarked) [DPPG, dipalmitoyl-phosphatidylglycerol, reference compound]
LPS-induced TNF-α production: failed to antagonize

CCCCCCCC/C=C\CCCCCCCC(=O)O[C@H](COC(=O)CCCCCCCCCCCCCCC)COP(=O)(O)OCC(O)CO (some centres unmarked) [POPG, palmitoyl-oleoyl-phosphatidylglycerol]
LPS-induced TNF-α production: significantly attenuated

phosphatidylinositol [PI]
LPS-induced TNF-α production: significantly attenuated
